Patent publication US20260315483A1, “HETEROCYCLIC COMPOUNDS AS TRIGGERING RECEPTOR EXPRESSED ON MYELOID CELLS 2 AGONISTS AND METHODS OF USE” (VIGIL NEUROSCIENCE, INC., priority 2023, published 2026)

Target: T1, human TREM2 (Homo sapiens, UniProt Q9NZC2)
T1 construct: expressed in transfected cells; host or cells: HEK293T-hTREM2 cells (HEK cell line expressing human TREM2 and DAP12)
Experiment: In vitro measurement of TREM2 activity using cellular phosphorylation of spleen tyrosine kinase (Syk), AlphaLisa, HEK293T-hTREM2 cells
Type: cell-based
Details: HEK293T cells expressing human TREM2 and DAP12, 45 min at room temperature, Table D
Method: In Vitro Measurement of Triggering Receptor Expressed on Myeloid Cells 2 Activity Using Cellular Phosphorylation of Spleen Tyrosine Kinase (“Syk”) Assays
Measurement of TREM2 agonist potency was done using a HEK cell line expressing human TREM2 and DAP12 (HEK293T-hTREM2 cells). Binding of small molecules to, and activation of, TREM2 increases the phosphorylation of Syk. The resultant levels of Syk phosphorylation are measured using a commercial AlphaLisa reagent kit. To perform the assay, HEK-hTREM2 cells were plated at 14,000 cells per well in a 384 well plate, in 25 μL of complete growth media and incubated at 37° C., 5% CO2 for 20-24 hours.
Prior to the assay, test compounds were diluted in the 384 well plates in assay buffer and allowed to equilibrate for 30 minutes. Growth media was removed from cell plates by inversion on blotting paper, and 25 μL of test articles in assay buffer was added to cells. Cells were incubated for 45 minutes at room temperature. After 45 minutes, assay buffer was removed and 10 μL of lysis buffer was added. Plates were shaken for 20 minutes at 350 RPM at room temperature. After complete lysis, AlphaLisa reagents were added to the lysate, and fluourescence intensity was measured using a Perkin Elmer Envision plate reader. Intensities were used to generate a standard curve, and % activation was calculated. Curve fitting was performed using Prism v9 software, log(agonist) vs response—variable slope (four parameters), and EC50s were calculated from the curve fit.
The results presented in Tables D and D-2 have been generated with the in vitro assay described above. This assay may be used to test any of the compounds described herein to assess and characterize a compound's ability to act as an agonist of TREM2.

T1 sequence (Q9NZC2 19-230): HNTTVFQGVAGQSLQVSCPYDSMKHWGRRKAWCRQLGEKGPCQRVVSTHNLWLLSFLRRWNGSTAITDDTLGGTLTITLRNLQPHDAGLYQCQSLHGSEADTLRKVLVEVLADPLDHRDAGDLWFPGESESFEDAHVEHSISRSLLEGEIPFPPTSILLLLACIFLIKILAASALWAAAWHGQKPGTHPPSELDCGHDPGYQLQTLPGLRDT
T1 sequence (O43914 22-113 partner): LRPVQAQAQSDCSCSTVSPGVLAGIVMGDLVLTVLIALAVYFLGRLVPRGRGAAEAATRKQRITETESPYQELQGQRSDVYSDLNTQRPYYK

EC50	SMILES
3 to 100 µM	CN(C)c1nc2nc([C@@H]3CCO[C@@H](c4cnn(C5CC5)c4)C3)nc(-c3cc(F)c(Cl)cc3F)c2s1 (racemic) [compound 106, 7-(4-chloro-2,5-difluoro-phenyl)-N,N-dimethyl-5-[rac-(2R,4R)-2-(1-cyclopropylpyrazol-4-yl)tetrahydropyran-4-yl]thiazolo[4,5-d]pyrimidin-2-amine]
≤ 0.05 µM	CCCc1nc2nc(N3C[C@@H](C)O[C@@H](c4cnn(C5CC5)c4)C3)nc(-c3ccc(F)cc3F)c2s1 [compound 114, (2S,6R)-2-(1-cyclopropyl-1H-pyrazol-4-yl)-4-(7-(2,4-difluorophenyl)-2-propylthiazolo[4,5-d]pyrimidin-5-yl)-6-methylmorpholine]
0.5 to 3 µM	Cc1c(F)ccc(-c2cc(N3C[C@@H](C)O[C@@H](c4cnn(C5CC5)c4)C3)nc3ncnn23)c1F [compound 132, (2S,6R)-2-(1-cyclopropyl-1H-pyrazol-4-yl)-4-(7-(2,4-difluoro-3-methylphenyl)-[1,2,4]triazolo[1,5-a]pyrimidin-5-yl)-6-methylmorpholine]
0.05 to 0.5 µM	CN(C)c1nc2nc(C3CCO[C@@H](c4cnn(C5CC5)c4)C3)nc(-c3ccc(F)c(F)c3F)c2s1 (stereo in doubt) [compound 108, 5-[(2R,4S)-2-(1-cyclopropylpyrazol-4-yl)tetrahydropyran-4-yl]-N,N-dimethyl-7-(2,3,4-trifluorophenyl)thiazolo[4,5-d]pyrimidin-2-amine]
0.5 to 3 µM	C[C@@H]1CN(c2cc(-c3ccc(F)cc3F)n3ncnc3n2)C[C@H](c2cnn(C3CC3)c2)O1 [compound 131, (2S,6R)-2-(1-cyclopropyl-1H-pyrazol-4-yl)-4-(7-(2,4-difluorophenyl)-[1,2,4]triazolo[1,5-a]pyrimidin-5-yl)-6-methylmorpholine]
≤ 0.05 µM	Cc1cc([C@H]2CN(c3nc(-c4ccc(F)cc4F)c4sc(N(C)C)nc4n3)C[C@@H](C)O2)ccn1 [compound 123, 7-(2,4-difluorophenyl)-N,N-dimethyl-5-[(2R,6S)-2-methyl-6-(2-methyl-4-pyridyl)morpholin-4-yl]thiazolo[4,5-d]pyrimidin-2-amine]
0.05 to 0.5 µM	CN(C)c1nc2nc(C3CCO[C@@H](c4cnn(C5CC5)c4)C3)nc(-c3cc(F)ccc3F)c2s1 (mixture of isomers) [compound 104, 7-(2,5-difluorophenyl)-N,N-dimethyl-5-[rac-(2R)-2-(1-cyclopropylpyrazol-4-yl)tetrahydropyran-4-yl]thiazolo[4,5-d]pyrimidin-2-amine]
0.05 to 0.5 µM	C[C@@H]1CCCN1c1nc2nc([C@H]3CCO[C@@H](c4cnn(C5CC5)c4)C3)nc(-c3ccc(F)cc3F)c2n1C [compound 124, 6-(2,4-difluorophenyl)-7-methyl-2-[(2R,4S)-2-(1-cyclopropylpyrazol-4-yl)tetrahydropyran-4-yl]-8-[(2R)-2-methylpyrrolidin-1-yl]purine]
≤ 0.05 µM	C[C@@H]1CN(c2nc(-c3ccc(F)cc3F)c3sc(N4CCC[C@H]4C)nc3n2)C[C@H](c2cnn(C3CC3)c2)O1 [compound 109, (2S,6R)-2-(1-cyclopropyl-1H-pyrazol-4-yl)-4-(7-(2,4-difluorophenyl)-2-((R)-2-methylpyrrolidin-1-yl)thiazolo[4,5-d]pyrimidin-5-yl)-6-methylmorpholine]
0.05 to 0.5 µM	CN(C)c1nc2nc([C@H]3CCO[C@@H](c4cnn(C5CC5)c4)C3)nc(-c3ccc(C(F)F)cc3F)c2s1 [compound 103, 5-[(2R,4S)-2-(1-cyclopropylpyrazol-4-yl)tetrahydropyran-4-yl]-7-[4-(difluoromethyl)-2-fluoro-phenyl]-N,N-dimethyl-thiazolo[4,5-d]pyrimidin-2-amine]
0.05 to 0.5 µM	Cc1cn2c(-c3ccc(C(F)(F)F)cc3F)nc([C@H]3CCO[C@@H](c4cnn(C5CC5)c4)C3)cc2n1 [compound 133, 7-((2R,4S)-2-(1-cyclopropyl-1H-pyrazol-4-yl)tetrahydro-2H-pyran-4-yl)-5-(2-fluoro-4-(trifluoromethyl)phenyl)-2-methylimidazo[1,2-c]pyrimidine]
≤ 0.05 µM	C[C@@H]1CN(c2nc(C34CC(C(F)(F)F)(C3)C4)c3c(n2)nc(N(C)C)n3C)C[C@H](c2cnn(C3CC3)c2)O1 [compound 130, 2-[(2S,6R)-2-(1-cyclopropylpyrazol-4-yl)-6-methyl-morpholin-4-yl]-N,N,7-trimethyl-6-[3-(trifluoromethyl)-1-bicyclo[1.1.1]pentanyl]purin-8-amine]
0.5 to 3 µM	C[C@@H]1CN(c2cc(-c3ccc(F)cc3F)c3sccc3n2)C[C@H](c2cnn(C3CC3)c2)O1 [compound 111, (2S,6R)-2-(1-cyclopropylpyrazol-4-yl)-4-[7-(2,4-difluorophenyl)thieno[3,2-b]pyridin-5-yl]-6-methyl-morpholine]
≤ 0.05 µM	CN(C)c1nc2nc([C@H]3CCO[C@@H](c4cnn(C5CC5)c4)C3)nc(-c3cc(F)c(Cl)cc3F)c2s1 [compound 105, 7-(4-chloro-2,5-difluoro-phenyl)-N,N-dimethyl-5-[(2R,4S)-2-(1-cyclopropylpyrazol-4-yl)tetrahydropyran-4-yl]thiazolo[4,5-d]pyrimidin-2-amine]
0.05 to 0.5 µM	CN(C)c1nc2nc([C@H]3CCO[C@H](c4ccc(=O)n(C)c4)C3)nc(-c3ccc(F)cc3F)c2s1 (stereo in doubt) [compound 121, 5-[(2S,4S)-4-[7-(2,4-difluorophenyl)-2-(dimethylamino)thiazolo[4,5-d]pyrimidin-5-yl]tetrahydropyran-2-yl]-1-methyl-pyridin-2-one]
≤ 0.05 µM	CN(C)c1nc2nc([C@@H]3CCO[C@H](c4ccc(=O)n(C)c4)C3)nc(-c3ccc(F)cc3F)c2s1 (stereo in doubt) [compound 120, 5-[(2S,4R)-4-[7-(2,4-difluorophenyl)-2-(dimethylamino)thiazolo[4,5-d]pyrimidin-5-yl]tetrahydropyran-2-yl]-1-methyl-pyridin-2-one]
≤ 0.05 µM	Cc1cc([C@H]2C[C@@H](c3nc(-c4ccc(F)cc4F)c4sc(N(C)C)nc4n3)CCO2)ccn1 [compound 116, 7-(2,4-difluorophenyl)-N,N-dimethyl-5-[(2R,4S)-2-(2-methyl-4-pyridyl)tetrahydropyran-4-yl]thiazolo[4,5-d]pyrimidin-2-amine]
0.05 to 0.5 µM	Cc1cn2c(-c3ccc(Cl)cc3F)nc(N3C[C@@H](C)O[C@@H](c4cnn(C5CC5)c4)C3)cc2n1 [compound 134, (2S,6R)-4-(5-(4-chloro-2-fluorophenyl)-2-methylimidazo[1,2-c]pyrimidin-7-yl)-2-(1-cyclopropyl-1H-pyrazol-4-yl)-6-methylmorpholine]
0.05 to 0.5 µM	Cn1c(C(F)F)nc2nc([C@H]3CCO[C@@H](c4cnn(C5CC5)c4)C3)nc(-c3ccc(C(F)(F)F)cc3F)c21 [compound 127, 2-[(2R,4S)-2-(1-cyclopropylpyrazol-4-yl)tetrahydropyran-4-yl]-8-(difluoromethyl)-6-[2-fluoro-4-(trifluoromethyl)phenyl]-7-methyl-purine]

Same assay, conditions: HEK293T cells expressing human TREM2 and DAP12, 45 min at room temperature, Table D-2

EC50	SMILES
0.05 to 0.5 µM	CN1Cc2c(cc([C@H]3CCO[C@@H](c4cnn(C5CC5)c4)C3)nc2C23CC(C(F)(F)F)(C2)C3)C1=O [compound 226]
3 to 100 µM	CN1Cc2c(cc(N3CCO[C@@H](c4cnn(C)c4)C3)nc2C2CC(C(F)(F)F)C2)C1=O (some centres unmarked) [compound 216]
≤ 0.05 µM	C[C@@H]1CN(c2cc3c(c(-c4ccc(C(F)(F)F)cc4F)n2)CN(c2ccn(C)n2)C3=O)C[C@H](c2cnn(C3CC3)c2)O1 [compound 228, 6-((2S,6R)-2-(1-cyclopropyl-1H-pyrazol-4-yl)-6-methylmorpholino)-4-(2-fluoro-4-(trifluoromethyl)phenyl)-2-(1-methyl-1H-pyrazol-3-yl)-2,3-dihydro-1H-pyrrolo[3,4-c]pyridin-1-one]
3 to 100 µM	Cc1cc([C@H]2CN(c3cc4c(c(-c5ccc(F)cc5F)n3)CN(C)C4=O)CCO2)ccn1 [compound 203]
0.5 to 3 µM	Cc1cc([C@H]2CN(c3cc4c(c(-c5ccc(Cl)cc5F)n3)CN(C)C4=O)CCO2)ccn1 [compound 201]
0.05 to 0.5 µM	C[C@@H]1CN(c2cc3c(c(C4CCC(C(F)(F)F)CC4)n2)CN(C)C3=O)C[C@H](c2cnn(C3CC3)c2)O1 (mixture of isomers) [compound 227, 6-[(2S,6R)-2-(1-cyclopropylpyrazol-4-yl)-6-methyl-morpholin-4-yl]-2-methyl-4-[4-(trifluoromethyl)cyclohexyl]-3H-pyrrolo[3,4-c]pyridin-1-one]
3 to 100 µM	CN1C(=O)c2cc(N3CCO[C@@H](c4cnn(C)c4)C3)nc(-c3ccc(Cl)cc3F)c2C1(C)C [compound 208]
0.05 to 0.5 µM	CN1Cc2c(cc(C3CCO[C@@H](c4cnn(C5CC5)c4)C3)nc2-c2ccc(C(F)(F)F)cc2F)C1=O (some centres unmarked) [compound 222]
0.05 to 0.5 µM	CN1Cc2c(cc([C@@H]3CCO[C@@H](c4cnn(C5CC5)c4)C3)nc2-c2ccc(C(F)(F)F)cc2F)C1=O [compound 223]
≤ 0.05 µM	C[C@@H]1CN(c2cc3c(c(-c4ccc(C(F)(F)F)cc4F)n2)CN(C)C3=O)C[C@H](c2cnn(C3CC3)c2)O1 [compound 221]
